Laboratory results taken from patent US20040235939A1, “Synthesis of peloruside a and analogs thereof for use as antitumor agents” (priority 2003, published 2004).
Read-outs that look alike come from different tables or passages of the source.

What was measured:
[1] = tested on: Mia PaCa-2; assay: SRB cytotoxicity assay, Mia PaCa-2; type: cell-based; conditions: Homo sapiens
Description: (§1) Cells were treated on Days 1, 3, 5, and 7 with 5 μL of media, vehicle, or drug. Peloruside A was resuspended in 0.1% DMSO and added to wells to a final concentration of 0.01, 0.1, 1, 10 or 100 nM. Taxol® (Sigma-Aldrich) was resuspended in 0.1% ethanol and added to cells to a final concentration of 0.1, 1, 10, 100, or 1000 nM.
(§2) The amount of surviving cells was measured using the sulforhodamine B (SRB) assay as previously described (Skehan et al., New colorimetric cytotoxicity assay for anticancer-drug screening. J. Natl. Cancer Inst., 1990. 82(13): p. 1107-12). Cells were fixed on Days 5, 7, and 9 (representing 4, 6, and 8 days of exposure to drug or control, respectively) with 50% (w/v) trichloroacetic acid for 1 hour at 4° C., rinsed thoroughly with water, and dried overnight. The dried cells were stained with 4% sulforhodamine B in 1% acetic acid, rinsed thoroughly and dried overnight. The bound dye was resuspended in 10 mM Tris and the absorbance was read at 492 nm. Percent growth inhibition (GI) was calculated as follows: %GI=(1−(absorbance sample/absorbance vehicle))×100. The absorbance value for each drug concentration and control represents the average of 6 replicates. The %GI was plotted against the log[drug] to generate the growth curves. The concentration of drug required to inhibit growth by 50% (GI50) was calculated for each time point.

[2] = tested on: SK-MEL-5; assay: SRB cytotoxicity assay, SK-MEL-5; type: cell-based; conditions: Homo sapiens
Description: as §1, §2

[3] = tested on: Tubulin, purified from bovine brains; assay: Tubulin polymerization in vitro; type: biochemical
Description: Tubulin, purified from bovine brains and prepared in PEM-buffer (80 mM PIPES, 0.5 mM MgCl2, 1 mM EGTA, pH 6.9) was thawed under vacuum on ice. Tubulin was incubated at 37° C. until almost melted and resuspended to a final concentration of 2 mg/ml and placed on ice. Peloruside A or Taxol® was added into transparent 96-well plates (Coming Incorp. Costar) and placed on ice. GTP (Sigma) was added to a final concentration of 1 mM. The 96 well plate was warmed to 37° C. and 120 μl of tubulin solution was added into each well. The absorbance of the reaction at 340 nm over time (each 40-50 sec.) was measured on the spectrophotometer TECAN SPECTRAFluor Plus. Peloruside A or Taxol® was added to the tubulin at a final concentration of 5 or 10 μM.

[4] = tested on: various cultured human tumor cell lines; assay: Proliferation of a panel of tumor cell lines; type: cell-based; conditions: panel: colon, pancreas, melanoma, ovarian, renal, liver, lung, breast, prostate
Description: as §1, §2

[5] = tested on: 1A9 cells; assay: Cell Titer-Glo cell viability, parent 1A9 cells; type: cell-based, human; conditions: parental 1A9 cells, 48 hours
Description: These cell lines have specific amino acid mutations in tubulin that prevent Taxol®-binding. […] Synthetic (+)-Peloruside A was used for the present example.
1A9, ptx10 and ptx22 cells were plated in 96-well plates to approximately 50% confluency. On the next day, Taxol® or Peloruside A was added to each well and incubated for 48 hours. A final concentration of 1, 2, 3, 4, 5, 8, 10, 20, 30, 50, 100, 300, 500, or 1000 nM of Taxol® was used. A final concentration of 10, 20, 30, 40, 50 or 70 nM of Peloruside A was used. Cell viability was measured using the Cell Titer-Glo Luminescent Cell Viability Assay (Promega). FIGS. 80-82 show bar graphs of cell viability at various concentrations of Peloruside A and Taxol®.

| SMILES | GI50 ([1]; 96 h, Mia PaCa-2, Pancreas, 4 Days, read-out: GI50) [nM] | GI50 ([1]; 144 h, Mia PaCa-2, Pancreas, 6 Days, read-out: GI50) [nM] | GI50 ([1]; 192 h, Mia PaCa-2, Pancreas, 8 Days, read-out: GI50) [nM] | GI50 ([2]; 96 h, SK-MEL-5, Melanoma, 4 Days, read-out: GI50) [nM] | GI50 ([2]; 144 h, SK-MEL-5, Melanoma, 6 Days, read-out: GI50) [nM] | GI50 ([2]; 192 h, SK-MEL-5, Melanoma, 8 Days, read-out: GI50) [nM] | polymerization of tubulin dimers into microtubule polymers (microtubule-stabilizing activity) [3] | tubulin stabilization activity ([3]; 5 or 10 μM, 37° C., absorbance at 340 nm) | inhibition of proliferation of tumor cell lines [4] | inhibition of proliferation of tumor cell lines ([4]; listed as ent-40) | GI50 ([1]; MIA PaCa-2, 96 h) [nM] | GI50 ([1]; MIA PaCa-2, 144 h) [nM] | GI50 ([1]; MIA PaCa-2, 192 h) [nM] | GI50 ([2]; SK-MEL-5, 96 h) [nM] | GI50 ([2]; SK-MEL-5, 144 h) [nM] | GI50 ([2]; SK-MEL-5, 192 h) [nM] | inhibition of cell growth (antimitotic activity) [5] |
| --- | --- | --- | --- | --- | --- | --- | --- | --- | --- | --- | --- | --- | --- | --- | --- | --- | --- |
| CC(=O)O[C@H]1C(=O)[C@@]2(C)[C@H]([C@H](OC(=O)c3ccccc3)[C@]3(O)C[C@H](OC(=O)[C@H](O)[C@@H](NC(=O)c4ccccc4)c4ccccc4)C(C)=C1C3(C)C)[C@]1(OC(C)=O)CO[C@@H]1C[C@@H]2O [Paclitaxel, paclitaxel, reference compound] | 0.73 | 0.53 | 0.27 | 0.82 | 1 | 0.27 | – | – | – | – | – | – | – | – | – | – | – |
| CC[C@H](/C=C(/C)C1C[C@@H](OC)CC(O)C(C)(C)C2(O)OC(C[C@@H](OC)C2O)C[C@@H](OC)[C@H](O)C(=O)O1)CO (single isomer, unassigned; (+)) [Peloruside A, (+)-Peloruside A] | – | – | – | – | – | – | did polymerize tubulin dimers into microtubule polymers | potent tubulin stabilization activity | inhibited proliferation | did inhibit the growth | 9.65 | 1.76 | 2.44 | 9.42 | 1.76 | 2.44 | potent antimitotic activity |
